Laboratory results as given in the COVID Moonshot data (paper PMC11187573), “Identification of SARS-CoV-2 Mpro inhibitors through deep reinforcement learning for de novo drug design and computational chemistry approaches” (RSC Medicinal Chemistry, 2024).

Assays:
[1] = target: SARS-CoV-2 Main Protease (SARS-CoV-2) (UniProt P0DTD1)
[2] = target: SARS-CoV-2 Main Protease (SARS-CoV-2) (UniProt P0DTD1); remark: listed apart in the source

| Structure (SMILES) | inhibition ([1]; 20.0 µM) | inhibition ([1]; 50.0 µM) | relative solubility at 20 uM | relative solubility at 100 uM | inhibition ([2]; 50.0 µM) | inhibition ([2]; 20.0 µM) | IC50 [2] |
| --- | --- | --- | --- | --- | --- | --- | --- |
| O=C(c1ccccc1)N1CCN(C(=O)c2nn(-c3ccccc3C(F)(F)F)cc2O)CC1 | -48% | -1.44% | 0.99 | 0.95 | 0% |  |  |
| C=CC(=O)N(c1ccc(C(C)(C)C)cc1)C(C(=O)NC1CCC1)c1cccnc1 (stereo not drawn) | 6.16% | 12% | 1 | 1 | 51.9% | 0% |  |
| NS(=O)(=O)c1ccc(N2CCC(CN3CCCCCC3)CC2)cc1 | -5.53% | -0.987% | 0.99 | 0.91 | 5.22% | -2.46% |  |
| O=C(CCl)N1CCOc2cccc(-c3cccnc3)c21 | 1.76% | 7.44% | 1 | 1 | -5.89% |  |  |
| O=C(O)[C@@H](Cc1nc(=O)cc[nH]1)NC[C@@H]1C[C@@H]2C=C[C@H]1C2 (stereo in doubt) | 13.7% | 26.4% | 1 | 1 | 29.5% |  |  |
| O=C(Nc1cnccc1CO)C1CCOc2ccc(Cl)cc21 (stereo not drawn) |  |  | 0.94 | 0.93 |  |  |  |
| C=CC(=O)N(c1ccc(C(C)(C)C)cc1)C(C(=O)NC1CCCC1)c1cccnc1 (stereo not drawn) | -10.5% | -12.8% | 1.01 | 1 | 1.68% | 0% |  |
| C=CC(=O)N(c1ccc(C(C)(C)C)cc1)C(C(=O)NC(C)CC)c1cccnc1 (stereo not drawn) | 16.8% | 32.5% | 1 | 1 | 23.9% | 3.71% |  |
| Cc1ccncc1NC(=O)Cc1cccc(C(N)=O)c1 | 2.66% | -5.83% | 1.01 | 1.01 | 0.535% |  |  |
| O=C(Cc1c[nH]c2ncccc12)NCc1ccc(Cl)cc1 | 2.99% | 3.45% | 1 | 0.95 |  | 0% |  |
| COCCc1ccc(Cl)cc1CN1CCN(C(=O)CCl)CC1 | 96.1% | 95.1% | 1 | 0.99 | 100% |  | 2420 nM |
| C=CC(=O)N(c1ccc(C(C)OC)cc1)C(C(=O)Nc1ccc(OC)cc1C)c1cccnc1 (stereo not drawn) | 2.91% | 6.9% | 0.99 | 0.97 |  | 0% |  |
| O=C(CCl)N1CCN(Cc2cccc3ccccc23)CC1 |  | 98.6% | 0.99 | 0.98 | 100% | 100% | 900 nM |
| O=C(NCc1cccnn1)NC(Cc1ccccc1)c1cccs1 (stereo not drawn) |  | 13.9% | 1 | 1 | 0% | 0% |  |
| C=CC(=O)N(c1ccc(C2(C)CC2)cc1)C(C(=O)Nc1ccc(OC)cc1)c1cccnc1 (stereo not drawn) |  | 12.6% | 0.96 | 0.62 | 0% | 0% |  |
| C=CC(=O)N(c1ccc(N(C)C)c(C)c1)C(C(=O)NC(C)(C)C)c1cccnc1 (stereo not drawn) | 2.89% | 8.8% | 0.98 | 0.95 | 14.4% | 0% |  |
| CC1(C)Cc2cccc(OCCNC(=O)c3cc(=O)[nH]c4ccc(Cl)cc34)c2O1 | 5.99% | 28.8% | 0.97 | 0.91 | 18.7% |  |  |
| CCC(=O)NCC[C@@H]1CCc2ccc3c(c21)CCO3 (stereo in doubt) | 0.473% | 6.69% | 1 | 1 |  | 0% |  |
| N#Cc1cccc(NC(=O)Nc2c[nH]c3ncccc23)c1 |  | 47.3% | 1 | 0.91 | 19.9% | 0% |  |
| CCCN(CC1COc2ccccc2O1)C(=O)c1cc(=O)[nH]c2ccc(Cl)cc12 (stereo not drawn) | -8.21% | -15.6% | 0.98 | 0.89 | 0% |  |  |
| C=CC(=O)N(c1ccc(SC)cc1)C(C(=O)Nc1ccc(Cl)cc1)c1cccnc1 (stereo not drawn) | 16.9% | 32.3% | 0.81 | 0.64 |  | 9.4% |  |
| Cn1cnnc1CNC(=O)Nc1cc(C(F)(F)F)c[nH]c1=O | 7.84% | 14.8% | 1 | 1 | 3.33% |  |  |
| Cc1ccncc1NC(=O)Cc1ccccc1 | 8.19% | 19.5% | 1 | 1 | 16.1% | -0.63% |  |
| Cc1ccncc1NC(=O)[C@@]12COC[C@@H]1C2 (stereo in doubt) | -0.441% | -2.2% | 1 | 1 | 0% |  |  |
| C=CC(=O)N(c1ccc(CC)c(I)c1)C(C(=O)NC(C)(C)C)c1cccnc1 (stereo not drawn) | 15.2% | 20.7% | 0.95 | 0.93 | 9.38% |  |  |
| CC(C(=O)Nc1cccc(OC2CC(=O)N2)c1)c1cnccn1 (stereo not drawn) |  | 17% | 1 | 1 | 0% | 0% |  |

| Structure (SMILES) | inhibition ([1]; 20.0 µM) | inhibition ([1]; 50.0 µM) | relative solubility at 20 uM | relative solubility at 100 uM | inhibition ([2]; 50.0 µM) | inhibition ([2]; 20.0 µM) | IC50 [2] |
| --- | --- | --- | --- | --- | --- | --- | --- |
| Cc1ncncc1NC(=O)C(c1cccc(Cl)c1)C(C)C (stereo not drawn) | 3.52% | 20.6% | 1 | 0.99 | 46.5% |  |  |
| Cc1cccc(C2CN(C(=O)CCl)Cc3ccccc32)c1 (stereo not drawn) | 98.1% | 99.7% | 1 | 0.93 | 53.8% |  | 420 nM |
| Cc1nn(C(C)C)c(C)c1CC(=O)Nc1nncn1C1CC1 | -5.19% | -6.89% | 1 | 1 | 5.29% |  |  |
| C=CC(=O)N(c1ccc(C(C)(C)C)cc1)C(C(=O)N[C@H]1CC[C@@H](C(=O)OC)C1)c1cccnc1 (stereo in doubt) | 7.31% | 22.2% | 1 | 0.98 | 6.96% | 0% |  |
| COc1cc(Cl)cc(OC(=O)Nc2cccnc2)c1 |  |  | 1 | 1 |  |  |  |
| C=CC(=O)N1CC(NCC2=CNC3C=CC(C#N)=CC23)C1 (stereo not drawn) |  |  | 1 | 0.95 |  |  |  |
| O=C(CCl)N1CCN(Cc2ccsc2)CC1 | 98.8% | 99.4% | 1 | 0.99 |  |  |  |
| Cc1nnc(NC(=O)[C@@H]2COc3ccc(Cl)cc32)n1C1CC1 (stereo in doubt) |  |  | 1 | 1 |  |  |  |
| CCn1c(CSc2nc(C)c(C)n2CC2CCCO2)nc2cc(S(=O)(=O)N(C)C)ccc21 (stereo not drawn) | -23.6% | -3.59% | 0.85 | 0.84 |  |  |  |
| Cc1ccncc1NC(=O)Cc1cccc(Cl)c1 |  |  | 1 | 1 |  |  |  |
| Cc1ccncc1NC(=O)Cc1cc(Cl)cc(OC2CC(=O)N2)c1 (stereo not drawn) |  |  | 0.99 | 1 |  |  |  |
| O=C(/C=C/C=C/c1ccc2c(c1)OCO2)N1CCCCC1 |  |  | 1 | 0.97 |  | 0% |  |
| CNc1ccc(N(Cc2ccsc2)C(=O)Cn2nnc3ccccc32)cc1 | 57.1% | 82.6% | 0.99 | 0.77 |  |  |  |
| O=C(CCl)Nc1cccc(N2CCCC2=O)c1 | 27.1% | 51.4% | 1 | 1 |  |  |  |
| N#Cc1cccc(C2CN(C(=O)CCl)Cc3ccccc32)c1 (stereo not drawn) | 98.8% | 95.3% | 1 | 0.99 |  |  |  |
| O=C1C(=O)N(CCCOc2ccc(Cl)cc2)c2ccccc21 | -0.218% | 3.47% |  |  | 7.23% |  |  |
| N#CCCCOC(=O)c1cccc2c1NC(=O)C2=O | -3.65% | -1.22% |  |  | 0% |  |  |
| Cc1cccc(NC(=O)CN2C(=O)C(=O)c3ccccc32)c1 | -4.74% | -1.42% |  |  | 53.7% |  | 42400 nM |
| O=[N+]([O-])c1cnc(Sc2nnc(-c3ccco3)n2-c2ccc(OCc3ccccc3)cc2)s1 | 31.8% | 94.4% |  |  |  |  | 660 nM |
| Cc1cc(Cl)cc(CC2CCN(C(=O)CCl)CC2)c1 | 95.1% | 98.3% |  |  | 100% |  | 1240 nM |
| O=C(O)[C@@H](c1ccccc1)N1Cc2ccccc2C1=O (stereo in doubt) | 96.3% | 99.4% |  |  |  |  | 1160 nM |
| C=CC(=O)N(c1ccc(C(C)(C)C)cc1)C(C(=O)NCCc1cccc(F)c1)c1cncc(O)c1 (stereo not drawn) | 16.1% | 23.5% |  |  |  |  | 26200 nM |
| O=S(=O)(Cc1ccccc1F)c1oc(-c2ccc(F)cc2)nc1S(=O)(=O)c1ccccc1 | 49% | 95.9% |  |  |  |  | 99.2 nM |
| O=C(CCl)N1CCN(Cc2cccs2)CC1 | 94.5% | 99% | 1 | 1 |  |  |  |
| CN(CCC(N)=O)C(=O)C(=O)N1Cc2ccccc2C(c2ccccc2)C1 (stereo not drawn) | -0.756% | -0.803% |  |  | 0% |  |  |
